Tests used:
Test in all cases: selective drug sensitivity score (sDSS, relative to normal bone marrow) (sDSS (score)); higher = more potent and effective on the cell line relative to normal bone marrow cells
Conditions in all cases: 72 h
RCH-ACV = system: RCH-ACV
KASUMI-9 = system: KASUMI-9
P30-OHKUBO = system: P30-OHKUBO
SEM cells = system: SEM cells
REH = system: REH
MN-60 = system: MN-60
JURKAT = system: JURKAT
RPMI-8402 = system: RPMI-8402
HAL-01 = system: HAL-01
KOPN-8 = system: KOPN-8
COG-LL-355h = system: COG-LL-355h
TMD5 = system: TMD5
MOLT-16 = system: MOLT-16
NALM-16 = system: NALM-16
KARPAS-45 = system: KARPAS-45
MHH-CALL-3 = system: MHH-CALL-3
380 = system: 380
CCRF-CEM = system: CCRF-CEM
DND-41 = system: DND-41
PEER = system: PEER
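Further: ALL cell lines in 384-well plates, five doses spanning 10,000-fold, each plate scaled between vehicle and 100 µmol/L benzalkonium chloride controls, sDSS an adapted area-under-curve metric.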

| SMILES | selective drug sensitivity score (RCH-ACV) | selective drug sensitivity score (KASUMI-9) | selective drug sensitivity score (P30-OHKUBO) | selective drug sensitivity score (SEM cells) | selective drug sensitivity score (REH) | selective drug sensitivity score (MN-60) | selective drug sensitivity score (JURKAT) | selective drug sensitivity score (RPMI-8402) | selective drug sensitivity score (HAL-01) | selective drug sensitivity score (KOPN-8) | selective drug sensitivity score (COG-LL-355h) | selective drug sensitivity score (TMD5) | selective drug sensitivity score (MOLT-16) | selective drug sensitivity score (NALM-16) | selective drug sensitivity score (KARPAS-45) | selective drug sensitivity score (MHH-CALL-3) | selective drug sensitivity score 380 | selective drug sensitivity score (CCRF-CEM) | selective drug sensitivity score (DND-41) | selective drug sensitivity score (PEER) |
| --- | --- | --- | --- | --- | --- | --- | --- | --- | --- | --- | --- | --- | --- | --- | --- | --- | --- | --- | --- | --- |
| Cc1c(-c2ccc(N3CCc4cccc(C(=O)Nc5nc6ccccc6s5)c4C3)nc2C(=O)O)cnn1CC12CC3CC(CC(C3)C1)C2 (top concentration 1000 nM) | -1.76 | -2.26 | -2.26 | -1.66 | -2.26 | -2.26 | 7.34 | 13 | -1.86 | 0.74 | 18.2 | -2.26 | 0.54 | -2.26 | 23.8 | 9.54 | 3.94 | 18.6 | 19.7 | 19.3 |
| O=C(NOC[C@H](O)CO)c1ccc(F)c(F)c1Nc1ccc(I)cc1F (top concentration 1000 nM) | -1.96 | 4.44 | -4.16 | -3.16 | -4.16 | -3.56 | -3.96 | -3.86 | 6.34 | 10.1 | 6.94 | 2.94 | -1.36 | 2.74 | -3.76 | 14.9 | 2.24 | 1.14 | 8.64 | 0.94 |
| CO[C@@H](C)Cn1c(=O)n(C)c2cnc3ccc(-c4cncc(C(C)(C)O)c4)cc3c21 (top concentration 2500 nM) | 17.6 | 8.68 | 8.18 | 5.08 | 6.78 | 3.88 | 2.98 | 2.78 | 1.98 | 13.9 | 3.88 | -1.22 | 11.9 | -0.52 | 2.08 | -1.42 | 10.3 | 8.48 | 3.18 | 3.38 |
| Cc1cccc(CC(=O)N2CCc3c2ccc(-c2cn(C)c4ncnc(N)c24)c3F)n1 (top concentration 2500 nM) | 7.02 | 2.92 | 3.52 | 0.32 | 9.62 | 1.82 | 8.22 | 5.22 | 2.92 | -0.68 | -0.28 | -0.68 | 5.62 | -0.68 | 1.32 | -0.68 | -0.68 | -0.08 | -0.68 | 7.02 |
| CNC(=O)c1ccccc1Nc1nc(Nc2ccc3c(c2OC)CCC[C@H](N2CCN(CCO)CC2)C3)ncc1Cl (top concentration 5000 nM) | 0.46 | 0.26 | 6.36 | 3.06 | -2.24 | -2.24 | -2.54 | -0.74 | 0.46 | 0.76 | 6.96 | -2.74 | 2.06 | -2.44 | 1.26 | -1.94 | 2.06 | -2.54 | 0.06 | -1.44 |
| COc1cc2ncnc(Oc3cccc(NC(=O)Nc4cc(C(C)(C)C(F)(F)F)on4)c3)c2cc1OC (top concentration 10000 nM) | 13.9 | 7.5 | 3.2 | 14.5 | 5 | 0 | 0 | 4.7 | 3.4 | 16.7 | 4.9 | 15.7 | 2.5 | 0 | 3.2 | 0 | 0 | 0.1 | 0 | 17.8 |
| C[C@@H](Oc1cc(-n2cnc3ccc(CN4CCN(C)CC4)cc32)sc1C(N)=O)c1ccccc1C(F)(F)F (top concentration 10000 nM) | 20.9 | 26 | 21.7 | 28.3 | 21.8 | 3.72 | 22.8 | 28.8 | 16.6 | 19.9 | 5.62 | 11.8 | 20.2 | 17.4 | 28.8 | 8.92 | 25.5 | 22.7 | 13.2 | 30 |
| Nc1nccc(-c2c(-c3ccc(F)cc3)ncn2C2CCCCC2)n1 (top concentration 10000 nM) | 13.5 | 1.7 | 4.3 | 1.2 | 0.8 | 0 | 0.1 | 0.6 | 1 | 9.2 | 0 | 1.5 | 2.6 | 0.9 | 0.6 | 0.1 | 1.4 | 0.7 | 3.3 | 1.4 |
| O=C(O)c1ccc(-c2c[nH]c3ncc(-c4ccccc4)cc23)cc1C1CCCC1 (top concentration 10000 nM) | 5.76 | 0.66 | 3.36 | 7.56 | -1.44 | -1.44 | 0.16 | 1.66 | 4.26 | 4.16 | -0.44 | 1.66 | 3.66 | -1.44 | 4.36 | 3.76 | 0.86 | 3.66 | -1.24 | 2.56 |
| C[C@@H]1CN(CC(=O)Nc2ccc3c(c2)Cc2cccc(-c4cc(=O)cc(N5CCOCC5)o4)c2S3)C[C@H](C)O1 (top concentration 25000 nM) | 8.12 | 1.22 | 3.42 | 2.22 | 6.12 | -2.18 | 0.92 | 1.82 | -0.18 | 5.72 | 3.02 | -2.18 | 0.32 | -2.18 | 1.72 | -2.18 | -1.88 | 2.62 | 4.02 | 2.62 |
| COc1ccc2[nH]cc(/C=C3\C(=O)Nc4ccc(NC(=O)CCN5CCCCC5)cc43)c2c1 (top concentration 50000 nM) | 1.08 | 1.28 | 0.38 | 2.18 | -1.62 | 0.28 | -3.22 | 2.68 | -3.42 | 1.38 | 0.28 | 0.28 | -2.32 | -2.42 | 7.98 | -5.32 | -4.62 | -0.02 | 1.38 | 2.18 |
| Cc1nn(C)c(COc2ccc(N3CCN(S(=O)(=O)N(C)C)CC3)cc2)c1-c1cccc2c(CCCOc3cccc4ccccc34)c(C(=O)O)n(CCN3CCOCC3)c12 (top concentration 50000 nM) | 4.66 | 5.66 | 4.46 | 4.96 | 8.46 | 3.16 | 5.86 | 4.86 | 2.46 | 10.1 | 15.3 | 4.26 | 12.6 | 4.36 | 8.16 | 2.56 | 0.86 | 9.06 | 4.56 | 10.2 |
| C[C@H](Nc1ncnc2[nH]cnc12)c1cc2ccc(F)cc2nc1-c1ccccn1 [AMG319] (top concentration 1000 nM) | 19.3 | 1.18 | 4.08 | -1.42 | -1.02 | -1.42 | -1.42 | -1.42 | 10.4 | 6.38 | 4.58 | -1.42 | -1.42 | -1.42 | -0.22 | -0.42 | -1.02 | -1.42 | -0.92 | -1.42 |
| C=CCn1c(=O)c2cnc(Nc3ccc(N4CCN(C)CC4)cc3)nc2n1-c1cccc(C(C)(C)O)n1 [AZD1775] (top concentration 10000 nM) | 17.2 | 14.6 | 13.7 | 14.1 | 13.5 | 2.74 | 11.3 | 13.9 | 8.34 | 14.1 | 7.24 | 4.94 | 17.5 | 6.64 | 14.9 | 5.64 | 10.8 | 14.2 | 11.5 | 12.2 |
| NC(=O)Nc1cc(-c2cccc(F)c2)sc1C(=O)N[C@H]1CCCNC1 [AZD7762] (top concentration 1000 nM) | 7.9 | 4.1 | 3.3 | 19 | -1.1 | -4.9 | -0.7 | 0 | 3.5 | 3.4 | -0.1 | -1.1 | -1.5 | 0.5 | 1.8 | 1.9 | 1 | -0.1 | 2.3 | -0.7 |
| Cc1cc([C@@H](C)Nc2ccccc2C(=O)O)c2nc(N3CCOCC3)cc(=O)n2c1 [AZD-6482] (top concentration 2500 nM) | 17.6 | 5.82 | 9.12 | 1.92 | 7.82 | 0.02 | -0.28 | 2.32 | 6.62 | 8.22 | 6.92 | -0.28 | -0.28 | 0.42 | 1.82 | 0.42 | 4.72 | 2.02 | 2.32 | -0.28 |
| CN(C)Cc1c(C(=O)NCCOc2ccc(C(=O)NO)cc2)oc2ccccc12 [Abexinostat] (top concentration 10000 nM) | 10.6 | 8.26 | 5.56 | 5.46 | 2.26 | -3.04 | 1.66 | 4.96 | -0.44 | 9.26 | 3.36 | 5.36 | 5.66 | 0.56 | 10.6 | 15.4 | 7.56 | 4.56 | 4.46 | 6.16 |
| S=C(NCc1ccc2c(c1)OCO2)N1CCN(c2ncnc3c2oc2ccccc23)CC1 [Amuvatinib] (top concentration 10000 nM) | 9.26 | 1.26 | 4.26 | 2.26 | 5.56 | 5.46 | 11.1 | 10.9 | 2.96 | 8.76 | 2.06 | 4.16 | 8.36 | 0.86 | 5.06 | 5.06 | 3.76 | 1.56 | 4.16 | 9.36 |
| CC(=O)OC[C@H]1O[C@@H]([S-])[C@H](OC(C)=O)[C@@H](OC(C)=O)[C@@H]1OC(C)=O.CCP(CC)CC.[Au+] [Auranofin] (top concentration 2500 nM) | 3.84 | 3.94 | 4.84 | 1.34 | 6.04 | -2.76 | -1.76 | -2.36 | 6.44 | 11.6 | 6.34 | 3.84 | 1.74 | -0.56 | 0.94 | 4.04 | 12.3 | 2.74 | 1.94 | 0.74 |

Source: the supplement of paper PMC8967900
